Experimental data taken from patent publication EP3130590A1, “AROMATIC AZA COMPOUNDS AS VR1/TRPV1 LIGANDS” (Grünenthal GmbH, priority 2015, dated 2017).

Target: T1, vanilloid receptor 1 (VR1/TRPV1 receptor) (Homo sapiens, UniProt Q8NER1)
T1 construct: expressed in transfected cells; host or cells: CHO K1
Assay: Functional testing on the vanilloid receptor 1 (FLIPR Ca2+ influx assay, capsaicin stimulation)
Format: cell-based
Conditions: capsaicin (CAP) 100 nM; for inhibition at 1 µM: @ 1 µM test compound; for inhibition at 1 µM / inhibition at 5 µM: relative to maximum achievable inhibition with 10 µM capsazepine, read-out: inhibition (in %), column (f) Ki human [nM] CAP; for inhibition at 5 µM: @ 5 µM test compound
Description: Furthermore, preference may be given to compounds according to the invention that cause a 50 per cent displacement of capsaicin, which is present at a concentration of 100 nM, in a FLIPR assay with CHO K1 cells which were transfected with the human VR1 gene at a concentration of less than 6,000 nM, preferably less than 5,000 nM, more preferably less that 3,000 nM or less than 1,000 nM and particularly preferably less than 300 nM, most particularly preferably less than 100 nM, even more preferably less than 75 nM, additionally preferably less than 50 nM, most preferably less than 10 nM.
In the process, the Ca^2+ influx is quantified in the FLIPR assay with the aid of a Ca^2+-sensitive dye (type Fluo-4, Molecular Probes Europe BV, Leiden, the Netherlands) in a fluorescent imaging plate reader (FLIPR, Molecular Devices, Sunnyvale, USA), as described hereinafter. […]
The FLIPR protocol consists of 2 substance additions. First the compounds to be tested (10 µM) are pipetted onto the cells and the Ca^2+ influx is compared with the control (capsaicin 10 µM). This provides the result in % activation based on the Ca^2+ signal after the addition of 10 µM of capsaicin (CP). After 5 min incubation, 100 nM of capsaicin are applied and the Ca^2+ influx is also determined. Desensitising agonists and antagonists lead to suppression of the Ca^2+ influx. The % inhibition is calculated compared to the maximum achievable inhibition with 10 µM of capsazepine.
Triple analyses (n=3) are carried out and repeated in at least 3 independent experiments (N=4). Starting from the percentage displacement caused by different concentrations of the compounds to be tested of general formula I, IC50 inhibitory concentrations which cause a 50% displacement of capsaicin were calculated.
Ki values for the test substances were obtained by conversion by means of the Cheng-Prusoff equation (Cheng, Prusoff; Biochem. Pharmacol. 22, 3099-3108, 1973).
The affinity of selected compounds according to the invention for the vanilloid receptor 1 (VR1/TRPV1 receptor) was determined as described hereinbefore.
The value after the "@"symbol indicates the concentration at which the indicated inhibition (in %) was respectively determined.

[1] = functional (f), Ki from IC50 by Cheng-Prusoff equation, "ne" = did not show any effect in this assay

T1 sequence (Q8NER1 whole entry): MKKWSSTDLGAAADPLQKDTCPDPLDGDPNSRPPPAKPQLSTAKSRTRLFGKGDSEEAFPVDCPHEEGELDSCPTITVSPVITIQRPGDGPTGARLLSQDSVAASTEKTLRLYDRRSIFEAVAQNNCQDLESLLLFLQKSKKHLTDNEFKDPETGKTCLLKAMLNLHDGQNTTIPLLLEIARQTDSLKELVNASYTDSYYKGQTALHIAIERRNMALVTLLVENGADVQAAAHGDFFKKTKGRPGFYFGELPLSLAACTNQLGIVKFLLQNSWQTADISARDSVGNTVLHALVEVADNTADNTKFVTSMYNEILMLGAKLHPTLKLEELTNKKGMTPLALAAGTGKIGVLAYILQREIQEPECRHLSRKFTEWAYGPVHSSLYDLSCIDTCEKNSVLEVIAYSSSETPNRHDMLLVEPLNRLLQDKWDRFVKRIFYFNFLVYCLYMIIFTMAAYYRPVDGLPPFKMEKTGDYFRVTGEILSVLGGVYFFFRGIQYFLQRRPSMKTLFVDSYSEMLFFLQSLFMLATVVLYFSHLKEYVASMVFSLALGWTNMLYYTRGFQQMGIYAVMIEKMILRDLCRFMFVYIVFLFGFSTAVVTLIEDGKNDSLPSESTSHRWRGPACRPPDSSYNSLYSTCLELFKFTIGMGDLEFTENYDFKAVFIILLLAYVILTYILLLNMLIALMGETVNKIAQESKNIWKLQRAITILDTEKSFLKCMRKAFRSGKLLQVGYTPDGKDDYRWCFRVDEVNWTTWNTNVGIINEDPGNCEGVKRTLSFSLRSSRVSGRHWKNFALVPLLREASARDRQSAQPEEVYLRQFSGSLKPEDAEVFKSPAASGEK

| Structure (SMILES) | inhibition at 1 µM [%] | inhibition at 5 µM [%] | Ki [1] [nM] | (f) Ki human [nM] CAP [1] |
| --- | --- | --- | --- | --- |
| CC1CCN(c2nc(C(F)(F)F)ccc2CNC(=O)NC2Cc3ccccc3C2)CC1 [compound 3, 1-(2,3-dihydro-1H-inden-2-yl)-3-((2-(4-methylpiperidin-1-yl)-6-(trifluoromethyl)pyridin-3-yl)methyl)urea] | 0 | 89 | – | – |
| CC1CCN(c2nc(C(F)(F)F)ccc2CNC(=O)NC2CCCc3ccccc32)CC1 (stereo not drawn) [compound 2, 1-((2-(4-methylpiperidin-1-yl)-6-(trifluoromethyl)pyridin-3-yl)methyl)-3-(1,2,3,4-tetrahydronaphthalen-1-yl)urea] | 0 | 36 | – | – |
| CC1CCN(c2nc(C(F)(F)F)ccc2CNC(=O)C(C)C2CCCc3ccc(O)cc32)CC1 (stereo not drawn) [comp. no. 6, 2-(7-hydroxy-1,2,3,4-tetrahydronaphthalen-1-yl)-N-((2-(4-methylpiperidin-1-yl)-6-(trifluoromethyl)pyridin-3-yl)methyl)propanamide] | – | – | 28.6 | – |
| CC1CCN(c2nc(C(F)(F)F)ccc2CNC(=O)NC2CCc3ccccc32)CC1 (stereo not drawn) [compound 1, 1-(2,3-dihydro-1H-inden-1-yl)-3-((2-(4-methylpiperidin-1-yl)-6-(trifluoromethyl)pyridin-3-yl)methyl)urea] | – | – | – | ne |

Results, then the compound that gave them:

| inhibition at 1 µM [%] | inhibition at 5 µM [%] | Ki [1] [nM] | (f) Ki human [nM] CAP [1] | Structure (SMILES) |
| --- | --- | --- | --- | --- |
| 0 | 27 | – | – | CC1CCN(c2nc(C(F)(F)F)ccc2CNC(=O)NC2CCCc3c2cnn3C)CC1 (stereo not drawn) [compound 5, 1-(1-methyl-4,5,6,7-tetrahydro-1H-indazol-4-yl)-3-((2-(4-methylpiperidin-1-yl)-6-(trifluoromethyl)pyridin-3-yl)methyl)urea] |
| – | – | 6.1 | – | CC1CCN(c2nc(C(F)(F)F)ccc2CNC(=O)NC2CCCc3ccc(O)cc32)CC1 (stereo not drawn) [compound 4, 1-(7-hydroxy-1,2,3,4-tetrahydronaphthalen-1-yl)-3-((2-(4-methylpiperidin-1-yl)-6-(trifluoromethyl)pyridin-3-yl)methyl)urea] |
